In ChEMBL document CHEMBL5465560, “Selectivity Literature for EUbOPEN Chemogenomic Library” (2024):

Assays:
Mu-type opioid receptor = Mu-type opioid receptor (Homo sapiens, UniProt P35372); assay: Selectivity interaction (GPCR panel (PDSP screen)) EUB0000311b OPRM1; conditions: at 10 µM
[1] = target: T1, Protein kinase C epsilon type (Homo sapiens) (UniProt Q02156); assay: Selectivity interaction (KinomeScan (DiscoverX)) EUB0001049a PRKCE; conditions: at 1 µM
T1 sequence (whole entry): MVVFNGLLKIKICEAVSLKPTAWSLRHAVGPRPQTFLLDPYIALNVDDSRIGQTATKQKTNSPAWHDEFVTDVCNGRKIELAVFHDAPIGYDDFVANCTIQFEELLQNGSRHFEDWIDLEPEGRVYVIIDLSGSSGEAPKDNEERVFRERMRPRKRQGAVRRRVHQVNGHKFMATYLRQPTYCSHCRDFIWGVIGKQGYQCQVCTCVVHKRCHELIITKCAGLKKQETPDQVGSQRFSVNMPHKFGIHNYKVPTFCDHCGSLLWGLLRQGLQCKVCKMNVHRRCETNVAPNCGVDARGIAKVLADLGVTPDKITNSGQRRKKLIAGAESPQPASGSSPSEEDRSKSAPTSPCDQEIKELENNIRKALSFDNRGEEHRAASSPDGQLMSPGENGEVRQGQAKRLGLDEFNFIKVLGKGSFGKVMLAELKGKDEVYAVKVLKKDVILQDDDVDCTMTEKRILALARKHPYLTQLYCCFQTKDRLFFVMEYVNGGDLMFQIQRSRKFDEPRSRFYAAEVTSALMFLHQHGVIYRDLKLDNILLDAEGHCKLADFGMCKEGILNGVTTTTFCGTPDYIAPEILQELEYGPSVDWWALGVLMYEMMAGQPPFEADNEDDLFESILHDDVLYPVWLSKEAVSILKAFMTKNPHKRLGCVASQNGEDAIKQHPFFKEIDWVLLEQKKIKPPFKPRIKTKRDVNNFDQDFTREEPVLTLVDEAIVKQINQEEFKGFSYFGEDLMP

[2] = target: DNA (cytosine-5)-methyltransferase 3A (Homo sapiens) (UniProt Q9Y6K1); conditions: at 1 µM
[3] = target: Tyrosine-protein kinase Fgr (Homo sapiens) (UniProt P09769); assay: Selectivity interaction (Kinase panel (Invitrogen)) EUB0000639a FGR; conditions: at 200 nM
[4] = target: Protein-tyrosine kinase 2-beta (Homo sapiens) (UniProt Q14289); assay: Selectivity interaction (ActivX KiNativ screen (kinase selectivity in THP-1 cell lysates)) EUB0000639a PTK2B; type: subcellular; conditions: lysate, at 0.01 µM
[5] = target: MAP kinase-activated protein kinase 2 (Homo sapiens, UniProt P49137); assay: Selectivity interaction (KinomeScan (DiscoverX)) EUB0000092b MAPKAPK2; conditions: at 10 µM
[6] = target: Proto-oncogene tyrosine-protein kinase Src (Homo sapiens, UniProt P12931); assay: Selectivity interaction (KinomeScan (DiscoverX)) EUB0000092b SRC; conditions: at 10 µM
[7] = target: BDNF/NT-3 growth factors receptor (Homo sapiens) (UniProt Q16620); assay: Selectivity interaction (Ambit KINOMEscan and KiNATiv profiling in Jurkat cells) EUB0000090b NTRK2; type: cell-based; conditions: at 1 µM
[8] = target: T2, Ephrin type-A receptor 6 (Homo sapiens) (UniProt Q9UF33); assay: Selectivity interaction (KinomeScan (DiscoverX)) EUB0000618a EPHA6; conditions: at 10 µM
T2 sequence (whole entry): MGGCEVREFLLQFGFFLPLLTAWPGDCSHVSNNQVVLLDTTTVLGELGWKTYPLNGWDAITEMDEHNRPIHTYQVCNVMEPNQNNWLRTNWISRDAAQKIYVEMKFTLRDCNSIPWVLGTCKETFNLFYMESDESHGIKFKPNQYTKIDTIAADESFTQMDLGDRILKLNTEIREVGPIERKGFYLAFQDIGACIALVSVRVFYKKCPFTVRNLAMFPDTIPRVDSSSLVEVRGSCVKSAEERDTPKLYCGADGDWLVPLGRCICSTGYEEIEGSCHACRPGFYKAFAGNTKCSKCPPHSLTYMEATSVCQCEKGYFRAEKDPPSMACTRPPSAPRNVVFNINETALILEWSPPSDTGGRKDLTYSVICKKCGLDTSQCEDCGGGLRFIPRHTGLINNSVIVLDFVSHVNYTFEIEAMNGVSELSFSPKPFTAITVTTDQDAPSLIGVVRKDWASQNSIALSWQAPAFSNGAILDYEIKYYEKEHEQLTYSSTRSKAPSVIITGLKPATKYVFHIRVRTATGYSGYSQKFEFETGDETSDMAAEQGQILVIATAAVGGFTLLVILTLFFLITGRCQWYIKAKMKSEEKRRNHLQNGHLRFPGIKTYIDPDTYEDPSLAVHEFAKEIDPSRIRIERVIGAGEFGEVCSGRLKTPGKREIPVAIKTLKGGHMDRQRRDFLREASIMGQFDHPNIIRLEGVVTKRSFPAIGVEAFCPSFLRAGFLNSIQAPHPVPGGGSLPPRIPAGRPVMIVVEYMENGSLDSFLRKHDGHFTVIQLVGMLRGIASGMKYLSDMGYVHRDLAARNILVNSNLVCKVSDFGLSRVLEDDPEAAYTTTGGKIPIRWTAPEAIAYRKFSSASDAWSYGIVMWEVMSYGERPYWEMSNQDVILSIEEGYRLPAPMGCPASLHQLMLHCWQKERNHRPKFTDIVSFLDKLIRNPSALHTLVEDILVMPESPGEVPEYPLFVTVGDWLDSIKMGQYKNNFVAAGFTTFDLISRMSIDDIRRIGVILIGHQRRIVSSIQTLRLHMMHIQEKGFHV

[9] = target: Platelet-derived growth factor receptor alpha (Homo sapiens, UniProt P16234); assay: Selectivity interaction (KinomeScan (DiscoverX)) EUB0001619a PDGFRA; conditions: at 1 µM
[10] = target: Epithelial discoidin domain-containing receptor 1 (Homo sapiens) (UniProt Q08345); assay: Selectivity interaction (KinomeScan (DiscoverX)) EUB0000655a DDR1; conditions: at 10 µM
[11] = target: Rho-associated protein kinase 1 (Homo sapiens) (UniProt Q13464); assay: Selectivity interaction (Kinase panel (Z-LYTE Assay)) EUB0001632a ROCK1; conditions: at 10 µM
D(1A) dopamine receptor = D(1A) dopamine receptor (Homo sapiens, UniProt P21728); assay: Selectivity interaction (Panel of non-epigenetic targets (kinases, GPCRs, ion channels, and transporters, Eurofins) ) EUB0000271b DRD1; conditions: at 1 µM

Chain of DNA (cytosine-5)-methyltransferase 3A (Homo sapiens) (Q9Y6K1 whole entry, looked up): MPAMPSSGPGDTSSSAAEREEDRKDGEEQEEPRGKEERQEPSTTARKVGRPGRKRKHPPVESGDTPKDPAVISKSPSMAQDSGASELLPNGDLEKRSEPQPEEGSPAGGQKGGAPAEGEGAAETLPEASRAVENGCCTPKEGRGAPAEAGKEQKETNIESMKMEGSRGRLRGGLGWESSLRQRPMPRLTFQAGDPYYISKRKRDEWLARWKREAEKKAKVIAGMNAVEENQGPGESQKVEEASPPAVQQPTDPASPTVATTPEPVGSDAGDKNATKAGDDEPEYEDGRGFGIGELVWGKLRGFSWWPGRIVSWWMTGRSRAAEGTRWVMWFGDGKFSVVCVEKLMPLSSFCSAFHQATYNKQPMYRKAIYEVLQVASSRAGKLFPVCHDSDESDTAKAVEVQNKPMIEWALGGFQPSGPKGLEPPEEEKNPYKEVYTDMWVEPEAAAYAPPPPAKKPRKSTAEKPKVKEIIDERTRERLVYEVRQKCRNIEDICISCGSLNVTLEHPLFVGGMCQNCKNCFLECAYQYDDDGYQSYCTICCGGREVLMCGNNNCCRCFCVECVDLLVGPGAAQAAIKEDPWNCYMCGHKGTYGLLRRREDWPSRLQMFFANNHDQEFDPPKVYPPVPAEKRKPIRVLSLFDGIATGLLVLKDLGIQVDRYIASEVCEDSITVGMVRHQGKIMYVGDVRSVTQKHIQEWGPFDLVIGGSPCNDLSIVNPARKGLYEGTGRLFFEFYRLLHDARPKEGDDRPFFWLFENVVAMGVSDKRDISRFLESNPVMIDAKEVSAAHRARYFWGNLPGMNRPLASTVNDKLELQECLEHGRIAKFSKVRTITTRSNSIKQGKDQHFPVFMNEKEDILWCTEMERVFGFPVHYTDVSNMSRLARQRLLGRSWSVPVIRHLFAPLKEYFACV
Chain of Rho-associated protein kinase 1 (Homo sapiens) (Q13464 2-1354 limits assumed): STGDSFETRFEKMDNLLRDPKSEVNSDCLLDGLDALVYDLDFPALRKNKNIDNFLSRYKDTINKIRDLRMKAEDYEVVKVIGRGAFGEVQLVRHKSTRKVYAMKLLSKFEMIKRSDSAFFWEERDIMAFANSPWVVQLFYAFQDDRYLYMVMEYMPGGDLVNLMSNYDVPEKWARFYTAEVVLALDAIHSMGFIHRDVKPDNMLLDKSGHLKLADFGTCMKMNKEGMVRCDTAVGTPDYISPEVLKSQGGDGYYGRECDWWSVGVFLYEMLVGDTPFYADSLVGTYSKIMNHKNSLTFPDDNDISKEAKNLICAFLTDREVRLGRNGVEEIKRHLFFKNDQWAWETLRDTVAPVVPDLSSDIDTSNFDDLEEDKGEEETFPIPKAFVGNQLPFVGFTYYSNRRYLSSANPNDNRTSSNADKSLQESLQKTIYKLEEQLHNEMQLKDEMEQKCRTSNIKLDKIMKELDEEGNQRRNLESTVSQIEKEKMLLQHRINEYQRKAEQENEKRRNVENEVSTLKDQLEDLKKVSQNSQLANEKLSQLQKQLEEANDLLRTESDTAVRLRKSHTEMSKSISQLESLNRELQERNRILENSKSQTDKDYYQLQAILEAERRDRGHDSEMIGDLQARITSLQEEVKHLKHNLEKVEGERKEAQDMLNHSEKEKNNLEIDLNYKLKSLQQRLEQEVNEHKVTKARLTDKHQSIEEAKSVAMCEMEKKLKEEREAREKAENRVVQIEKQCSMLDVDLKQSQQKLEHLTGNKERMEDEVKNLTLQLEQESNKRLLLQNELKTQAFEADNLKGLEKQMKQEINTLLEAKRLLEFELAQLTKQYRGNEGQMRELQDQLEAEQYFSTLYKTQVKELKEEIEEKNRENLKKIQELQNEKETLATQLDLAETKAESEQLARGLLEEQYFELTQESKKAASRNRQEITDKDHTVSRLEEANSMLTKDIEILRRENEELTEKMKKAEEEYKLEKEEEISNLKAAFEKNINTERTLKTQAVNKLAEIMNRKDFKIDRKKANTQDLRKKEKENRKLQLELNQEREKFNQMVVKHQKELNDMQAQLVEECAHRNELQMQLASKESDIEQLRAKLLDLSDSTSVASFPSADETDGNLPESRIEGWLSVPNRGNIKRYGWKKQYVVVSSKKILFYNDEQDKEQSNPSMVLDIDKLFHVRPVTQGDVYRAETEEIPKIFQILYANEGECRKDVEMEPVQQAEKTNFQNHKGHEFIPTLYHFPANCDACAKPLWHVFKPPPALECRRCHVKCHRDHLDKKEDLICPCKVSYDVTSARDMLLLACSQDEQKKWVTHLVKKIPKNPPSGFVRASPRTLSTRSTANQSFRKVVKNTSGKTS
Chain of Platelet-derived growth factor receptor alpha (P16234 whole entry, the tested form may be a part): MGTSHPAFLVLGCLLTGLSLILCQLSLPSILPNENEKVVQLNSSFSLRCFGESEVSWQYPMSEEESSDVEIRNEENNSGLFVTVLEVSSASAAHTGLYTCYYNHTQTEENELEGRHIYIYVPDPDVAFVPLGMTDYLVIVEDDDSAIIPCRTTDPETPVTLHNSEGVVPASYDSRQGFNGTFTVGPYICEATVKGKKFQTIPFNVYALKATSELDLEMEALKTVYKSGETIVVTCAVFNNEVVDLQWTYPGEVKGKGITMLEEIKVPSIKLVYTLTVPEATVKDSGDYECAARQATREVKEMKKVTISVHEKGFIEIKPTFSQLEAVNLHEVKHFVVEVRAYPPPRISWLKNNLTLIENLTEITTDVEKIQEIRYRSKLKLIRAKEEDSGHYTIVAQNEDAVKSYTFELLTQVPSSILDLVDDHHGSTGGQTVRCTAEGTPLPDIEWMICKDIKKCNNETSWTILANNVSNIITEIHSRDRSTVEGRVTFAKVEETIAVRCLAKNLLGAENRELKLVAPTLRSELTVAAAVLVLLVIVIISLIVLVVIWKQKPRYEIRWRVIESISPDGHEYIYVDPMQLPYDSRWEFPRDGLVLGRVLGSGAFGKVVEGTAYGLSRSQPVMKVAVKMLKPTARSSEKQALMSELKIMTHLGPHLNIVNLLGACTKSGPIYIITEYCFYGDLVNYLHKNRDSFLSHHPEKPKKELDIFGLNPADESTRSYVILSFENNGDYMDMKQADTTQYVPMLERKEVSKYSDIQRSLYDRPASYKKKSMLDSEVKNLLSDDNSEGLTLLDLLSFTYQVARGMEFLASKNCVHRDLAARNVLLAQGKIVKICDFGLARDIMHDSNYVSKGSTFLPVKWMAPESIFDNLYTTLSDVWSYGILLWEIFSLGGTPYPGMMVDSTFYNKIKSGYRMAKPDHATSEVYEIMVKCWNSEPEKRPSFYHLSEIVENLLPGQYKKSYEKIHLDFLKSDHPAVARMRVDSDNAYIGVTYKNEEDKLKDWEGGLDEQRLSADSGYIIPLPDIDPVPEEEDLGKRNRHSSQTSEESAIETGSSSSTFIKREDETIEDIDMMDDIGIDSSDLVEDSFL
Chain of Tyrosine-protein kinase Fgr (Homo sapiens) (P09769 2-529 limits assumed): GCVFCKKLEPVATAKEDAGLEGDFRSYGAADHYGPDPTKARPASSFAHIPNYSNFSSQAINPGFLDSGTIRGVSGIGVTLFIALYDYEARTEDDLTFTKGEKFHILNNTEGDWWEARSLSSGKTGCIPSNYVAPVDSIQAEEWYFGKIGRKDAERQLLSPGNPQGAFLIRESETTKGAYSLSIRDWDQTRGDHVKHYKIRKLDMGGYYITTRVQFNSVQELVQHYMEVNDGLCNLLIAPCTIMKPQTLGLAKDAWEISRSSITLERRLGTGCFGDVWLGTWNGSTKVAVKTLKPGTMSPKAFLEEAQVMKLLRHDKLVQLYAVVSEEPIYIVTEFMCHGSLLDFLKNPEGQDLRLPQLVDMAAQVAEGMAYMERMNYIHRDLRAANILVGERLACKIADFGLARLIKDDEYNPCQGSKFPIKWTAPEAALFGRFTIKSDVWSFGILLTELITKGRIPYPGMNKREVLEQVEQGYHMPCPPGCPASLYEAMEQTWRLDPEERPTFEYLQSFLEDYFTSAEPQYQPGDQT
Chain of Protein-tyrosine kinase 2-beta (Homo sapiens) (Q14289 whole entry, looked up): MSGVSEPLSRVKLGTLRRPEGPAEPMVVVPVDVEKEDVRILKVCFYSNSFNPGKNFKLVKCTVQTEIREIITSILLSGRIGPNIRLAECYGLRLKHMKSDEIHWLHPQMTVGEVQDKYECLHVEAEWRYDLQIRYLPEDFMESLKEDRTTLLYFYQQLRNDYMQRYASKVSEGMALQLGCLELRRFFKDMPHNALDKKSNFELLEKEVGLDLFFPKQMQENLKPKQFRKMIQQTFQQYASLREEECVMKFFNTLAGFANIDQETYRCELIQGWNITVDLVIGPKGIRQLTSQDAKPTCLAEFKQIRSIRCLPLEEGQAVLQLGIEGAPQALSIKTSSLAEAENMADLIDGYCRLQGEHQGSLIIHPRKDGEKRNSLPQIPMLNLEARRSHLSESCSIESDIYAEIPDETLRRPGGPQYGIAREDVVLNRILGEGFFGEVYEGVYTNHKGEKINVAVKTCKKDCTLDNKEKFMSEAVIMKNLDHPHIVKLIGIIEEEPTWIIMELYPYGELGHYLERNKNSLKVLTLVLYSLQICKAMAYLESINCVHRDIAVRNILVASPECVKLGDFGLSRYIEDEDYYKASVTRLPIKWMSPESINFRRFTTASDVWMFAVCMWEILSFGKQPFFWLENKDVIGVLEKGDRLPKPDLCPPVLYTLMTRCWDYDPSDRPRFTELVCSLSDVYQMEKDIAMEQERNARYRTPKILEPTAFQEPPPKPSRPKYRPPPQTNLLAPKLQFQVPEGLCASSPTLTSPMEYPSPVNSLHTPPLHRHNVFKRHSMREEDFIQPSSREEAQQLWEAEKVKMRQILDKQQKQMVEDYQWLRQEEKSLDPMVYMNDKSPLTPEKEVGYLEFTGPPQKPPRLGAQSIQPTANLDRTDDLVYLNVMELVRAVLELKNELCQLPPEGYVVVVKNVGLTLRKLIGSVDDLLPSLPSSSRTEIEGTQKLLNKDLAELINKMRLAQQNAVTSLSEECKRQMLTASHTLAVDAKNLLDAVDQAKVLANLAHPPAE

## CCc1ccccc1C(=O)Nc1n[nH]c2c(C)c(F)c(C3C(C#N)=C(C)N(C)C(C)=C3C#N)cc12 [BAY-3827]
Mu-type opioid receptor
  % of inhibition: 30.5%

## COc1cc(Nc2nc(C)cc(-c3cnn4nc(OC)ccc34)n2)cc(C(F)(F)F)c1
[1]
  % of control: 100%

## CNCCN1CCC(c2cc(CN(C)C(=O)c3cccc(Oc4ccccc4)c3)ccn2)CC1
[2]
  % activity: > 90%

## CC[C@@H]1[C@H](F)C(=O)N[C@@H]1COc1nccc2cc(C(N)=O)c(OC)cc12 [ZIMLOVISERTIB]
[3]
  % of inhibition: 8.5%
[4]
  % of inhibition: -0.9%

## CCC(=O)N1CCN(c2ccc(-n3c(=O)ccc4cnc5ccc(-c6cnc7ccccc7c6)cc5c43)cc2C(F)(F)F)CC1
[5]
  % of control: 100%
[6]
  % of control: 95%

## CN(C)C/C=C/C(=O)Nc1ccc(C(=O)N2CCCC(Nc3ncc(Cl)c(-c4c[nH]c5ccccc45)n3)C2)cc1 (stereo not drawn)
[7]
  % of control: 76%

## O[C@H]1CC[C@H](Nc2ncc3nc(Nc4c(F)cc(F)cc4F)n([C@H]4CCOC4)c3n2)CC1
[8]
  % of control: 79%

## N#Cc1cccc(-c2c[nH]c3ncnc(N4CCOCC4)c23)c1
[9]
  % of control: 100%

## CN(C)CCOc1ccc(-c2nc(-c3ccncc3)c(-c3ccc4c(c3)CC/C4=N\O)[nH]2)cc1
[10]
  % of control: 43%

## Cn1cc(-n2cnc3c(NCc4nc5cc(Cl)c(Cl)cc5[nH]4)nc(N4CCOCC4)nc32)cn1
[11]
  % of control: -2.74%

## Cc1cc(C)cc([C@@H]2c3cc(C)ccc3NC(=O)CN2C(=O)c2ccc(Br)s2)c1
D(1A) dopamine receptor
  % of inhibition: 9%
